The subject of data set [1] is A-375. As to the kind of experiment: Antiproliferative activity against human A-375 cells harboring BRAF mutant assessed as reduction in cell viability incubated for 24 hrs by Click-iT EdU cell proliferation imaging assay. The data set is classed as functional, cell-based. The following applies: A-375, 24 h.
Data set [2] concerns A549. Kind of data set: Synergistic antiproliferative activity against human A549 cells harboring KRAS mutant assessed as reduction in cell viability incubated for 24 hrs in presence of 100 nM cobimetinib by Click-iT EdU cell proliferation imaging assay. It counts as functional, cell-based. The following applies: A549, 24 h.
Data set [3] relates to A549. As to the kind of experiment: Antiproliferative activity against human A549 cells harboring KRAS mutant assessed as reduction in cell viability incubated for 24 hrs by Click-iT EdU cell proliferation imaging assay. Particulars: A549, 24 h. It counts as functional, cell-based.
Data set [4] has as its target RAF proto-oncogene serine/threonine-protein kinase (Homo sapiens, UniProt P04049, Y340D/Y341D).
Data set [5] concerns Mus musculus. Kind of data set: Inhibition of pERK in human HCT-116 cells xenografted NCR nude mouse at 5 mg/kg, po qd for 4 days and measured after 2 to 8 hrs. It counts as functional, organism-based. Particulars: time 4.0 day. For orientation: Xenograft models place foreign cells or tissue in a host animal.
Data set [6] concerns HCT-116. As to the kind of experiment: Antitumour activity against human HCT-116 cells harboring KRAS mutant xenografted in NCR nude mouse assessed as tumor growth inhibition at 5 mg/kg, po qd for 21 days. It counts as functional, organism-based. Particulars: time 21.0 day.
Data set [7] in a line: Volume of distribution at steady state in mouse at 1 mg/kg, iv. The following applies: in vivo, read-out: Vdss. It counts as ADME, organism-based.
Data set [8] in a line: Oral bioavailability in mouse using methylcellulose-tween at 5 mg/kg. The data set is classed as ADME, organism-based. Particulars: in vivo.
A short description of data set [9]: Oral bioavailability in mouse using amorphous spray-dried dispersion at 25 mg/kg. It counts as ADME, organism-based. Particulars: in vivo.
The nature of data set [10]: Apparent permeability from apical to basolateral side in dog MDCK cells. It counts as ADME, cell-based, Canis lupus familiaris.
Data set [11] is described as follows: Clearance in mouse at 1 mg/kg, iv. The data set is classed as ADME, organism-based. Particulars: in vivo.
Data set [12] is described as follows: Half life in mouse at 1 mg/kg, iv. The data set is classed as ADME, organism-based. Particulars: in vivo.
A short description of data set [13]: Kinetic solubility of the compound in pH 7.4 PBS buffer. It counts as physicochemical. The following applies: read-out: Kinetic_solubility.
The target of data set [14] is Serine/threonine-protein kinase B-raf (Homo sapiens, UniProt P15056).
Description: Inhibition of BRAF (unknown origin) (416 to 766) inactive MAP2K1 as substrate preincubated for 30 mins measured after 90 mins by DELFIA assay
A short description of data set [15]: Lipophilicity, log D of the compound at pH 7.4. It counts as physicochemical. The following applies: buffer.
Data set [16] concerns Mus musculus. Kind of data set: Induction of stabilization of CRAF phosphorylation in human HCT-116 cells xenografted NCR nude mouse assessed as decrease in pRSK level at 10 mg/kg, po bid for 4 days and measured after 2 to 8 hrs. The following applies: time 4.0 day. The data set is classed as functional, organism-based.
The test system of data set [17] is Mus musculus. Kind of data set: Induction of stabilization of CRAF phosphorylation in human HCT-116 cells xenografted NCR nude mouse assessed as decrease in pERK level at 10 mg/kg, po bid for 4 days in presence of Cobimetinib and measured after 8 hrs. It counts as functional, organism-based. Particulars: time 4.0 day.
Data set [18] in a line: Oral bioavailability in mouse using PEG 400 at 5 mg/kg. Particulars: in vivo. It counts as ADME, organism-based.
The test system of data set [19] is Mus musculus. As to the kind of experiment: Induction of stabilization of CRAF phosphorylation in human HCT-116 cells xenografted NCR nude mouse assessed as decrease in pRSK level at 10 mg/kg, po bid for 4 days in presence of Cobimetinib and measured after 8 hrs. The following applies: time 4.0 day. It counts as functional, organism-based.
In data set [20] the test system is HCT-116. As to the kind of experiment: Synergistic antiproliferative activity against human HCT-116 cells harboring KRAS mutant assessed as inhibition of cell growth at 0.003 to 0.93 uM in presence of Cobimetinib by EdU staining based assay. It counts as functional. The following applies: dose 0.003-0.93 µM.
The test system of data set [21] is Mus musculus. As to the kind of experiment: Induction of stabilization of CRAF phosphorylation in human HCT-116 cells xenografted NCR nude mouse assessed as decrease in pMEK level at 10 mg/kg, po bid for 4 days and measured after 2 to 8 hrs. The data set is classed as functional, organism-based. Particulars: time 4.0 day.
In data set [22] the test system is Mus musculus. Kind of data set: Induction of CRAF phosphorylation in human HCT-116 cells xenografted NCR nude mouse at 10 mg/kg, po bid for 4 days in presence of Cobimetinib and measured after 2 to 8 hrs. It counts as functional, organism-based. The following applies: time 4.0 day.
Data set [23] concerns A549. Kind of data set: Synergistic antiproliferative activity against human A549 cells harboring KRAS mutant assessed as inhibition of cell growth in presence of Cobimetinib by EdU staining based assay. The data set is classed as functional. The following applies: dose 0.02-5 µM.
Data set [24] in a line: Toxicity in NCR nude mouse xenografted with human HCT-116 cells harboring KRAS mutant assessed as body weight loss at 10 mg/kg, po bid for 21 days in presence of 5 mg/kg Cobimetinib. It counts as organism-based. The following applies: in vivo, 504 h, time 21 day.
Data set [25] is described as follows: Toxicity in NCR nude mouse xenografted with human HCT-116 cells harboring KRAS mutant assessed as body weight loss at 10 mg/kg, po bid for 21 days. It counts as organism-based. Particulars: in vivo, 504 h, time 21 day.
Data set [26] deals with A-375. Kind of data set: Additive antiproliferative activity against human A-375 cells harboring BRAF mutant assessed as inhibition of cell growth in presence of Cobimetinib by EdU staining based assay. It counts as functional.
The test system of data set [27] is Mus musculus. Kind of data set: Induction of stabilization of CRAF phosphorylation in human HCT-116 cells xenografted NCR nude mouse assessed as decrease in pERK level at 10 mg/kg, po bid for 4 days and measured after 2 to 8 hrs. The data set is classed as functional, organism-based. The following applies: time 4.0 day.
In data set [28] the test system is HCT-116. As to the kind of experiment: Antitumour activity against human HCT-116 cells harboring KRAS mutant xenografted in NCR nude mouse assessed as tumor growth inhibition at 10 mg/kg, po bid for 21 days in presence of 5 mg/kg Cobimetinib. It counts as functional. The following applies: HCT-116, po, 504 h, time 21 day, read-out: TGI.
In data set [29] the test system is HCT-116. Kind of data set: Antitumour activity against human HCT-116 cells harboring KRAS mutant xenografted in NCR nude mouse assessed as tumor growth inhibition at 10 mg/kg, po bid for 21 days. The data set is classed as functional, organism-based. The following applies: time 21.0 day.
A short description of data set [30]: Oral bioavailability in mouse using amorphous spray-dried dispersion at 30 mg/kg. The data set is classed as ADME, organism-based. The following applies: in vivo.

Structures are written as SMILES. Values after ≈ are worked out from the molar mass of the structure shown. Active and inactive are the calls of the source. A value given as a limit tells only on which side of the number the result lay.

Sequence of Serine/threonine-protein kinase B-raf (P15056 whole entry): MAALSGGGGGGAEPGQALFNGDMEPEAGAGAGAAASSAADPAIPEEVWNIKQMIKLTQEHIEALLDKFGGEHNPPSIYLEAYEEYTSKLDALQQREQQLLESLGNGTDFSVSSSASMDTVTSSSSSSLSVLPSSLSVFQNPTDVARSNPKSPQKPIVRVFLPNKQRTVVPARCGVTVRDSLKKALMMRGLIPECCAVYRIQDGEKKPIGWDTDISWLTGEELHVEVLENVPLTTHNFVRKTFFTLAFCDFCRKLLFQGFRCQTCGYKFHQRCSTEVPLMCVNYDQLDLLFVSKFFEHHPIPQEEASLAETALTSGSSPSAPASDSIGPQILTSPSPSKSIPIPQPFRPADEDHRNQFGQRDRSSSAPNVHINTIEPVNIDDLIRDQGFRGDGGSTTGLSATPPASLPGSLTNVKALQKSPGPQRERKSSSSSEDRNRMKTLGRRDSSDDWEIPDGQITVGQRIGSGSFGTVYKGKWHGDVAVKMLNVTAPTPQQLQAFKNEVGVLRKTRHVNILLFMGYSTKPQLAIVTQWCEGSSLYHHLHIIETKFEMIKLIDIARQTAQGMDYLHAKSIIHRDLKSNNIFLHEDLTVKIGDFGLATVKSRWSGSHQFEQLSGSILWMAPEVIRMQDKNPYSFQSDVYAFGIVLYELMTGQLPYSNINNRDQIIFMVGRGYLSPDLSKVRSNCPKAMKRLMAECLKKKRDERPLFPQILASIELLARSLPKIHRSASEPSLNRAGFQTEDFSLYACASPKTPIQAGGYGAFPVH
Sequence of RAF proto-oncogene serine/threonine-protein kinase (P04049 whole entry Y340D/Y341D): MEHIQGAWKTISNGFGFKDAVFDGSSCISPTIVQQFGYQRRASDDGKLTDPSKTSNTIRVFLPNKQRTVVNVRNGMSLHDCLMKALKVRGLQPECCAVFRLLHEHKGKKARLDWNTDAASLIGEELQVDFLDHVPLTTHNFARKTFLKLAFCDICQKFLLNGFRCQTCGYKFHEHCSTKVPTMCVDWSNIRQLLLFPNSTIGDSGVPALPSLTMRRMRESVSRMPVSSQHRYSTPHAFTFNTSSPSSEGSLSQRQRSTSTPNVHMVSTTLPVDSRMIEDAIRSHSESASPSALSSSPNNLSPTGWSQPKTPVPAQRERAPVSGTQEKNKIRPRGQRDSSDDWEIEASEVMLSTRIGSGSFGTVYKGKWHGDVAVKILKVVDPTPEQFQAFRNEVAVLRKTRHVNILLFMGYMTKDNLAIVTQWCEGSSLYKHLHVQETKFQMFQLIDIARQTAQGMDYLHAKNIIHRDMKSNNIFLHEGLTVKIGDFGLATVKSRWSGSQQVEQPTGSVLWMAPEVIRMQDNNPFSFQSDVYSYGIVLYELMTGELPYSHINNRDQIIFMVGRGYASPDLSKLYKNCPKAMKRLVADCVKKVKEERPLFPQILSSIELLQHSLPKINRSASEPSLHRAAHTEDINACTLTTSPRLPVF

One may read the IC50 as the concentration that inhibits the measured activity by half. A word on the Ki: it is the equilibrium dissociation constant of an inhibitor or competing ligand from its target. Lower therefore signals higher affinity. Turning to `COc1n[nH]c2ncc(NC(=O)c3cc(NC(=O)NCCC(C)(C)C)c(F)cc3C)cc12`, the concentration for half-maximal inhibition (IC50) with A-375 [1] worked out at 47.4 nM; in the data set on A549 [2] it was 158 nM; in the data set with A549 [3] it was 986 nM. The same compound had a Ki in data set [4] below 0.05 nM.

Take `O=C(c1ccc(F)c(F)c1Nc1ccc(I)cc1F)N1CC(O)([C@@H]2CCCCN2)C1`: in the data set on Mus musculus [5], the inhibition entry is “Active”. For the same compound, in the data set on HCT-116 [6], the result was Active.

In general, bioavailability refers to the share of a dose that reaches the circulation, judged against a reference dose that is usually intravenous. Read a low bioavailability as little systemic uptake. A word on the Papp A→B: it is the apparent permeability from the apical to the basolateral side of a cell layer. A word on the clearance: it is the rate of elimination divided by the concentration. Lower therefore signals inefficient removal. A word on the half-life: it is the time needed for the level to fall by half in the phase considered. Lower therefore signals fast loss. For orientation: logD means the decadic logarithm of the distribution of all forms, ionised or not, between an organic phase and buffer at a given pH. Read a high logD as a more lipophilic compound. As for `Cc1cc(F)c(NC(=O)NCCC(C)(C)C)cc1Nc1ccc2ncn(C)c(=O)c2c1`, the Vd in [7] was found to be 0.94 L/kg. In addition, the bioavailability came to 0% in data set [8] and 2% in [9]. Besides, the IC50 in the data set with A-375 [1] came to 405 nM; in the data set with A549 [2], 253 nM; with A549 [3] it was 2700 nM. Further, the Papp A→B in [10] turned out to be 36 nm/s. Further, the clearance in data set [11] is 3 L/h/kg. The compound further showed a half-life in [12] of 30 min. In addition, the solubility kinetic in data set [13] is below 1 µM. The Ki is below 0.08 nM in data set [14] and below 0.05 nM in [4]. Also, the pH-dependent lipophilicity (logD) in data set [15] is 4.47.

For the compound `Cc1cc(F)c(NC(=O)NCCC(C)(C)C)cc1NC(=O)N(C)c1cc(N)ncn1`, the IC50 came to 85.3 nM with A-375 [1], 104 nM in the data set with A549 [2] and 1400 nM in the data set on A549 [3]. Further, the inhibitory constant (Ki) in data set [14] is below 0.08 nM; in data set [4], below 0.05 nM.

On to `Cc1cc(F)c(NC(=O)NCCC(C)(C)C)cc1NC(=O)c1cccc2c(N)ncnc12`, for which the 50% inhibitory concentration (IC50) in the data set with A-375 [1] amounted to 8 nM; in the data set on A549 [2], 96.8 nM; with A549 [3], 528 nM. The figures for the Ki in data set [14] and in data set [4] were below 0.08 nM and below 0.05 nM, respectively.

For the compound `CNc1cc(-c2cccnc2Nc2cc(NC(=O)NCCC(C)(C)C)c(F)cc2C)ncn1`, the IC50 with A-375 [1] was 92.6 nM; in the data set on A549 [2], 208 nM; in the data set with A549 [3] it was 2400 nM. In addition, the figures for the Ki in [14] and in [4] were below 0.08 nM and 0.06 nM, respectively.

On to `Cc1cc(F)c(NC(=O)NCCC(C)(C)C)cc1Nc1ccc2ncn(C)c(=O)c2c1F`, for which the outcome in the data set on Mus musculus [16], with Mus musculus [17], with Mus musculus [19], in the data set on HCT-116 [20], with Mus musculus [21] and in the data set with Mus musculus [22] was Active. Also, the outcome in the data set on A-375 [26], in the data set with Mus musculus [27] and in the data set with HCT-116 [29] was Active. Further, the Vd in [7] turned out to be 1.4 L/kg. Moreover, the values for the bioavailability in data set [18] and in data set [30] were 26% and 60%, respectively. In addition, the IC50 in the data set on A-375 [1] was determined as 112 nM; with A549 [2], 169 nM; with A549 [3], 2900 nM. Besides, the values for the Activity entry (in the data set on A549 [23]; in [24]; in data set [25]) were “Dose-Dependent Effect”, “Non-Toxic” and 10%, respectively. For the same compound, the apparent permeability from apical to basolateral (Papp A→B) in [10] was 130 nm/s. The same compound yielded a clearance in [11] of 1.62 L/h/kg. In data set [12], this compound showed a half-life of 48 min. The solubility kinetic in [13] was 3 µM (≈ 1.33 µg/mL). Further, the Ki in [14] is below 0.08 nM; in data set [4], 0.061 nM. In data set [15], the logD amounted to 4.47. The inhibition in vivo at 10 mg/kg in the data set on HCT-116 [28] amounted to 110%.

The values are drawn from ChEMBL document CHEMBL5030511, “Targeting KRAS Mutant Cancers via Combination Treatment: Discovery of a 5-Fluoro-4-(3H)-quinazolinone Aryl Urea pan-RAF Kinase Inhibitor” (J Med Chem, 2021).
